In PubChem BioAssay (NCI):
≈ marks a conversion by molar mass, not a printed value.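 Test compounds were applied to cells in 96-well plates for 48 hours at 5 doses. GI50 is the concentration that inhibits growth by half. The concentration for full growth arrest is given as TGI.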 Calls of active or inactive are those of the source. Rule as the data show it: active = GI50 below about 0.43 µM; inactive = the rest.

Columns and labels:
Experiment in all cases: DTP human tumour cell line panel, 48 h
ACHN renal = system: ACHN renal
HCC-2998 colon = system: HCC-2998 colon
SK-MEL-2 melanoma = system: SK-MEL-2 melanoma
IGROV1 ovarian = system: IGROV1 ovarian
SR leukemia = system: SR leukemia
K-562 leukemia = system: K-562 leukemia
U251 CNS = system: U251 CNS
KM20L2 colon = system: KM20L2 colon
786-0 renal = system: 786-0 renal
NCI-H226 lung = system: NCI-H226 lung

Compound | TGI (ACHN renal) | TGI (HCC-2998 colon) | TGI (SK-MEL-2 melanoma) | TGI (IGROV1 ovarian) | TGI (SR leukemia) | TGI (K-562 leukemia) | TGI (U251 CNS) | TGI (KM20L2 colon) | TGI (786-0 renal) | TGI (NCI-H226 lung) | GI50 (HCC-2998 colon) | GI50 (K-562 leukemia) | GI50 (NCI-H226 lung) | GI50 (U251 CNS) | outcome (KM20L2 colon)
O=C1OCc2nc3c(c(-c4ccccc4C(F)(F)F)c21)C(=O)OC3 | > 100 µM | > 100 µM | > 100 µM | > 100 µM | > 100 µM | > 100 µM | > 100 µM | > 100 µM | > 100 µM |  |  |  |  |  | 
O=[N+]([O-])c1ccc(N=P(c2ccccc2)(c2ccccc2)c2ccccc2)n2nnnc12 | > 100 µM |  | > 100 µM | > 100 µM |  | > 100 µM | > 100 µM | > 100 µM | > 100 µM |  |  |  |  |  | 
Cc1c(CCCl)c(Cl)n2c(nc3ccccc32)c1C#N | 2.14 µM | 2.94 µM | 2.78 µM | 3.36 µM | 0.649 µM | 3.34 µM | 2.34 µM | 2.11 µM |  | 2.93 µM |  |  |  |  | 
Cc1c2ccncc2c(C)c2c1[nH]c1ccc(O)cc12 |  | 1.63 µg/mL |  |  |  | 0.675 µg/mL | 0.35 µg/mL |  |  | 1.08 µg/mL | 0.261 µg/mL (≈ 0.996 µM) | 0.0182 µg/mL (≈ 0.0695 µM) | 0.137 µg/mL (≈ 0.522 µM) | 0.042 µg/mL (≈ 0.16 µM) | inactive
Cc1cc2c3ccccc3n3c2c2c1OC1(C)CCC(C2C1)C3(C)C (stereo not drawn) | > 25 µM | > 25 µM | > 25 µM | > 25 µM | > 25 µM | > 25 µM | > 25 µM | > 25 µM | > 25 µM | > 25 µM |  |  |  |  | 
COc1ccc(N2C(=O)[C@@H]3[C@@H]4CC(C)CC[C@@H]4c4c([nH]c5ccccc45)[C@@H]3C2=O)cc1 (stereo partly drawn) | 26.9 µM | > 100 µM | 28.5 µM | 49.7 µM | > 25.9 µM | > 100 µM | 28.8 µM | > 100 µM | 20.6 µM | 28.5 µM |  |  |  |  | 
O=C1N[C@@H]([C@H]2CC[C@H](Cl)CN2)C(=O)N[C@H]1[C@H]1CC[C@H](Cl)CN1 | 1.5 µM | 6.42 µM | 7.95 µM | 37.6 µM | 6.18 µM | 227 µM | 12.3 µM | 63.9 µM | 0.61 µM | 11.6 µM |  |  |  |  | 
COC(=O)CC(=O)OC1C[C@@H]2CCC3C(C)(C)CCC[C@]3(C)C23CC[C@@]1(C)C3 (stereo partly drawn) | 31.7 µM | 35 µM |  | 31.8 µM | > 100 µM | > 100 µM | 31.2 µM | 37.6 µM | 29.9 µM | 46.7 µM |  |  |  |  | 
CCN(CC)C(=O)Cc1[nH][nH]c(=O)c1C(=O)N(CC)CC | > 100 µM | > 100 µM | > 100 µM | > 100 µM | > 100 µM | > 100 µM | > 100 µM | > 100 µM | > 100 µM | > 100 µM |  |  |  |  | 
COC1=CC(=O)C2(C=C1OC)OC[C@H]1Oc3c(ccc4c3C=CC(C)(C)O4)C(=O)[C@H]12 (stereo partly drawn) | > 100 µM | > 100 µM | > 100 µM | > 100 µM |  | > 100 µM | > 100 µM | > 100 µM | > 100 µM |  |  |  |  |  | 
C#C[C@]1(O)CC[C@H]2[C@@H]3CCC4=C/C(=N/OC(=O)c5cccc6cc7ccccc7nc56)CC[C@@H]4[C@H]3CC[C@@]21CC | > 100 µM | > 100 µM | > 100 µM | > 100 µM | > 100 µM | > 100 µM | > 100 µM |  | > 100 µM | > 100 µM |  |  |  |  | 
O=C1C=C2SC3C[C@@]24CC1(O)[N+]1=c2c4c(c(O)c4c2=C(C=N4)CC1)N3 |  |  | 2.77 µM | 2.98 µM |  | 2.72 µM | 3.14 µM | 1.08 µM |  | 3.44 µM |  |  |  |  | 
CCCOC(=O)CCC(NC(=O)c1ccc(Nc2nc3ccccc3nc2-c2cccs2)cc1)C(=O)OCCC (stereo not drawn) | > 100 µM | > 100 µM | 59.9 µM | > 100 µM | > 100 µM | > 100 µM | > 100 µM | > 100 µM |  | > 100 µM |  |  |  |  | 
COc1ccc(/C=C(\C#N)c2ccccn2)cc1OC | > 100 µM | > 100 µM | > 100 µM | > 100 µM | > 100 µM | > 100 µM | 42 µM |  | > 100 µM | 95.8 µM |  |  |  |  | 
COC(=O)C(=O)C(C(=O)C(=O)Nc1cc(C)ccc1C)c1nc2ccccc2[nH]c1=O (stereo not drawn) | > 100 µM | > 100 µM | > 100 µM | > 100 µM | > 100 µM | > 100 µM | > 100 µM |  | > 100 µM | > 100 µM |  |  |  |  | 
O=S(c1ccc(O)cc1)c1ccc(O)cc1 |  | > 100 µM | > 100 µM | > 100 µM |  | > 100 µM | > 100 µM | > 100 µM | > 100 µM | > 100 µM |  |  |  |  | 
CC(C)C1OC(=O)C(Cc2ccccc2)N(C)C(=O)C(C(C)C)OC(=O)C(Cc2ccccc2)N(C)C(=O)C(C(C)C)OC(=O)C(Cc2ccccc2)N(C)C1=O (stereo not drawn) | 1.64 µM | 1.99 µM | 1.36 µM | 2.43 µM | 4.06 µM | 3.52 µM | 1.77 µM |  | 2.5 µM | 2.72 µM |  |  |  |  | 
CNC(=O)OC1/C(C)=C\C(C)C(O)C(OC)CC(C)CC2=C(OC)C(=O)C=C(C2=O)N(C)C(=O)/C(C)=C/C=C\C1OC (stereo not drawn) | 20.9 µM | 21.4 µM | 21.9 µM | 24.6 µM |  | 12.5 µM | 31.4 µM | 15.5 µM | 18.2 µM | 36.7 µM |  |  |  |  | 
O=c1[nH]nc(-c2cccc([N+](=O)[O-])c2)[nH]1 | > 100 µM | > 100 µM | > 100 µM | > 100 µM | > 100 µM | > 100 µM | > 100 µM |  | > 100 µM | > 100 µM |  |  |  |  | 
Cc1[nH]c2c(C)c3c([nH]c4ccc(Cl)cc43)c(C)c2c(=O)c1C | 11.6 µM | 16.5 µM | > 100 µM | > 65.5 µM | 8.19 µM | > 100 µM | 23.3 µM |  | 33 µM | 24.2 µM |  |  |  |  | 
COC(OC)c1cccc2c1C(=O)CCC1(CC2)OCCCCO1 | > 100 µM | > 100 µM | > 100 µM | > 100 µM |  | > 100 µM | > 100 µM | > 100 µM | > 100 µM | > 100 µM |  |  |  |  | 
NS(=O)(=O)c1ccc(Nc2c3ccccc3nc3c(C(=O)NC(CO)(CO)CO)cccc23)cc1 | 0.508 µM | 0.39 µM | 0.396 µM | 0.506 µM | > 1 µM | 0.642 µM | 0.457 µM |  | 0.0514 µM | 0.315 µM |  |  |  |  | 
CCCCCCCC(=O)NC(C)(C)C(=O)NCC(=O)NC(CC(C)C)C(=O)NC(C)(C)C(=O)NCC(=O)NCC(=O)NC(CC(C)C)C(=O)NC(C)(C)C(=O)NCC(=O)NC(C(=O)NC(CO)CC(C)C)C(C)CC (stereo not drawn) | 8.75 µM | 7.71 µM | 5.85 µM | 7.17 µM | 8.63 µM | 9.11 µM | 5.33 µM |  | 8.11 µM | 8.48 µM |  |  |  |  | 
CN1C/C(=C\c2ccccc2)C2=NN(C(N)=S)[C@H](c3ccccc3)[C@@H]2C1 | > 100 µM | > 100 µM | > 100 µM | > 100 µM | > 100 µM | > 100 µM | > 100 µM | > 100 µM | > 100 µM | > 100 µM |  |  |  |  | 
O=C1OCOC2(CCCC2)C1c1ccccc1 (stereo not drawn) | > 100 µM | > 100 µM | > 100 µM | > 100 µM | > 100 µM | > 100 µM | > 100 µM |  | > 100 µM | > 100 µM |  |  |  |  | 
CC1(C)OCC(/C=C\C(O)CC2(C)OCCO2)CO1 (stereo not drawn) | > 100 µM | > 100 µM | > 100 µM | > 100 µM | > 100 µM | > 100 µM | > 100 µM |  | > 100 µM | > 100 µM |  |  |  |  | 
N#CCCN(C(=O)Nc1ccc(NC(=O)N(CCC#N)c2ccccc2)cc1)c1ccccc1 | > 100 µM | > 100 µM | > 100 µM | > 100 µM | > 100 µM | > 100 µM | > 100 µM |  | > 100 µM | > 100 µM |  |  |  |  | 
NC1=Nc2ncccc2C(=O)NN1 | > 10 µM | > 10 µM | > 10 µM | > 10 µM | > 10 µM | > 10 µM | > 10 µM |  | > 10 µM | > 10 µM |  |  |  |  | 
Cc1ccc(NC(c2ccccc2)P(=O)(c2ccccc2)c2ccccc2)cc1 (stereo not drawn) | > 100 µM | > 100 µM | > 100 µM | > 100 µM | > 100 µM | > 100 µM | > 100 µM |  | > 100 µM | > 100 µM |  |  |  |  | 
Cc1cccc(NC(=S)NNC(=O)c2cc(-c3ccccc3)nc3ccccc23)c1 | > 100 µM | 57.3 µM | 45.8 µM | > 100 µM | 41.1 µM | > 100 µM | 89.9 µM |  | 85.1 µM | > 100 µM |  |  |  |  | 
